ChEMBL document CHEMBL3785053, “Synthesis and screening of ursolic acid-benzylidine derivatives as potential anti-cancer agents” (Eur J Med Chem, 2016)

Tests used:
[1] = Cytotoxicity against human HCT116 cells after 48 hrs by MTT assay; format: functional, cell-based; details: HCT-116, 48 h
A549 [2] = assay: Cytotoxicity against human A549 cells after 48 hrs by MTT assay; format: functional, cell-based; details: A549, 48 h
[3] = Cytotoxicity against human THP1 cells at 50 uM after 48 hrs by MTT assay; format: functional; details: THP-1, 48 h, read-out: GI
[4] = Cytotoxicity against human FR2 cells at 50 uM after 48 hrs by MTT assay; format: cell-based; details: read-out: GI
[5] = Cytotoxicity against human HCT116 cells at 50 uM after 48 hrs by MTT assay; format: functional; details: HCT-116, 48 h, read-out: GI
A549 [6] = assay: Cytotoxicity against human A549 cells at 50 uM after 48 hrs by MTT assay; format: functional; details: A549, 48 h, read-out: GI
MCF7 [7] = assay: Cytotoxicity against human MCF7 cells at 50 uM after 48 hrs by MTT assay; format: functional; details: MCF7, 48 h, read-out: GI
MCF7 [8] = assay: Cytotoxicity against human MCF7 cells after 48 hrs by MTT assay; format: functional, cell-based; details: MCF7, 48 h
[9] = Cytotoxicity against human THP1 cells after 48 hrs by MTT assay; format: functional, cell-based; details: THP-1, 48 h
[10] = Cytotoxicity against human FR2 cells after 48 hrs by MTT assay; format: cell-based; details: FR2, 48 h

Row | Structure (SMILES) | IC50 [1] | IC50 (A549 [2]) | inhibition of growth at 50 µM [3] | inhibition at 48 h, 50 µM [4] | inhibition of growth at 50 µM [5] | inhibition of growth at 50 µM (A549 [6]) | inhibition of growth at 50 µM (MCF7 [7]) | IC50 (MCF7 [8]) | IC50 [9] | IC50 [10]
1 | C[C@H]1[C@H](C)CC[C@]2(C(=O)O)CC[C@]3(C)C(=CC[C@@H]4[C@@]5(C)C/C(=C\C=C\c6ccccc6)C(=O)C(C)(C)[C@@H]5CC[C@]43C)[C@H]12 | 2.1 µM | 0.65 µM | 93% | 80% | 98% | 89% | 99% | 12 µM | 16 µM | 38 µM
2 | C[C@H]1[C@H](C)CC[C@]2(C(=O)O)CC[C@]3(C)C(=CC[C@@H]4[C@@]5(C)C/C(=C\c6cccc(Cl)c6)C(=O)C(C)(C)[C@@H]5CC[C@]43C)[C@H]12 | 4.1 µM | 7 µM | 85% | 80% | 90% | 65% | 70% | 29 µM | 5 µM | 45 µM
3 | C[C@H]1[C@H](C)CC[C@]2(C(=O)O)CC[C@]3(C)C(=CC[C@@H]4[C@@]5(C)C/C(=C\c6ccc(Br)cc6)C(=O)C(C)(C)[C@@H]5CC[C@]43C)[C@H]12 | 32 µM | 15 µM | 95% | 95% | 53% | 60% | 98% | 5 µM | 5 µM | 35 µM
4 | C[C@H]1[C@H](C)CC[C@]2(C(=O)O)CC[C@]3(C)C(=CC[C@@H]4[C@@]5(C)CCC(=O)C(C)(C)[C@@H]5CC[C@]43C)[C@H]12 [URSONIC ACID] | 2.3 µM | 15 µM | 88% | 86% | 53% | 78% | 42% | 56 µM | 13 µM | 24 µM
5 | C[C@H]1[C@H](C)CC[C@]2(C(=O)O)CC[C@]3(C)C(=CC[C@@H]4[C@@]5(C)C/C(=C\c6ccc7ccccc7c6)C(=O)C(C)(C)[C@@H]5CC[C@]43C)[C@H]12 | 0.53 µM | 16 µM | 98% | 75% | 89% | 60% | 90% | 21 µM | 5 µM | 40 µM
6 | C[C@H]1[C@H](C)CC[C@]2(C(=O)O)CC[C@]3(C)C(=CC[C@@H]4[C@@]5(C)C/C(=C\c6ccc([N+](=O)[O-])cc6[N+](=O)[O-])C(=O)C(C)(C)[C@@H]5CC[C@]43C)[C@H]12 | 5 µM | 2 µM | 98% | 95% | 98% | 98% | 98% | 4.1 µM | 4.1 µM | 70 µM
7 | COc1ccccc1/C=C1\C[C@]2(C)[C@H]3CC=C4[C@@H]5[C@@H](C)[C@H](C)CC[C@]5(C(=O)O)CC[C@@]4(C)[C@]3(C)CC[C@H]2C(C)(C)C1=O | 2.1 µM | 0.5 µM | 96% | 85% | 98% | 90% | 99% | 5 µM | 0.9 µM | 8.6 µM
8 | C[C@H]1[C@H](C)CC[C@]2(C(=O)O)CC[C@]3(C)C(=CC[C@@H]4[C@@]5(C)C/C(=C\c6ccccc6[N+](=O)[O-])C(=O)C(C)(C)[C@@H]5CC[C@]43C)[C@H]12 | 5 µM | 6.4 µM | 86% | 78% | 91% | 64% | 73% | 30 µM | 1.1 µM | 44 µM
9 | C[C@H]1[C@H](C)CC[C@]2(C(=O)O)CC[C@]3(C)C(=CC[C@@H]4[C@@]5(C)C/C(=C\c6ccc(O)cc6)C(=O)C(C)(C)[C@@H]5CC[C@]43C)[C@H]12 | 15 µM | 2.1 µM | 99% | 90% | 99% | 98% | 98% | 5 µM | 4.1 µM | 70 µM
10 | C[C@H]1[C@H](C)CC[C@]2(C(=O)O)CC[C@]3(C)C(=CC[C@@H]4[C@@]5(C)C/C(=C\c6ccc(Cl)cc6)C(=O)C(C)(C)[C@@H]5CC[C@]43C)[C@H]12 | 15 µM | 2.9 µM | 99% | 99% | 99% | 99% | 99% | 4.1 µM | 12 µM | 69 µM
11 | COc1cccc(/C=C2\C[C@]3(C)[C@H]4CC=C5[C@@H]6[C@@H](C)[C@H](C)CC[C@]6(C(=O)O)CC[C@@]5(C)[C@]4(C)CC[C@H]3C(C)(C)C2=O)c1 | 23 µM | 0.65 µM | 95% | 85% | 65% | 84% | 98% | 4.2 µM | 12 µM | 40 µM
12 | COc1cc(OC)c(OC)cc1/C=C1\C[C@]2(C)[C@H]3CC=C4[C@@H]5[C@@H](C)[C@H](C)CC[C@]5(C(=O)O)CC[C@@]4(C)[C@]3(C)CC[C@H]2C(C)(C)C1=O | 12 µM | 9 µM | 80% | 76% | 85% | 60% | 76% | 20 µM | 2 µM | 40 µM
13 | COc1cc(/C=C2\C[C@]3(C)[C@H]4CC=C5[C@@H]6[C@@H](C)[C@H](C)CC[C@]6(C(=O)O)CC[C@@]5(C)[C@]4(C)CC[C@H]3C(C)(C)C2=O)cc(OC)c1OC | < 0.9 µM | < 0.9 µM | 93% | 81% | 99% | 99% | 99% | 4 µM | 9.1 µM | 35 µM
14 | C[C@H]1[C@H](C)CC[C@]2(C(=O)O)CC[C@]3(C)C(=CC[C@@H]4[C@@]5(C)CC[C@H](O)C(C)(C)[C@@H]5CC[C@]43C)[C@H]12 [URSOLIC ACID] | 42 µM | – | 84% | 66% | 53% | 61% | 57% | – | 9.1 µM | 31 µM
15 | O=c1[nH]cc(F)c(=O)[nH]1 [FLUOROURACIL] | 2.3 µM | 1.4 µM | 89% | – | 79% | 82% | 92% | 2 µM | 1.7 µM | –
16 | C[C@H]1[C@H](C)CC[C@]2(C(=O)O)CC[C@]3(C)C(=CC[C@@H]4[C@@]5(C)C/C(=C\c6ccccc6)C(=O)C(C)(C)[C@@H]5CC[C@]43C)[C@H]12 | 14 µM | 18 µM | 90% | 90% | 95% | 60% | 98% | 23 µM | 16 µM | 70 µM
17 | C[C@H]1[C@H](C)CC[C@]2(C(=O)O)CC[C@]3(C)C(=CC[C@@H]4[C@@]5(C)C/C(=C\c6ccc([N+](=O)[O-])cc6)C(=O)C(C)(C)[C@@H]5CC[C@]43C)[C@H]12 | 12 µM | 2 µM | 95% | 99% | 95% | 99% | 95% | 5 µM | 14 µM | 69 µM
18 | C[C@H]1[C@H](C)CC[C@]2(C(=O)O)CC[C@]3(C)C(=CC[C@@H]4[C@@]5(C)C/C(=C\c6cccc7ccccc67)C(=O)C(C)(C)[C@@H]5CC[C@]43C)[C@H]12 | 0.64 µM | 17 µM | 90% | 97% | 99% | 58% | 96% | 12 µM | 2.1 µM | 68 µM
